Patent publication US10647708B2, “Tetrahydroisoquinoline derived PRMT5-inhibitors” (CTXT PTY LTD, priority 2014, dated 2020)

What was measured:
[1] = system: symmetrical dimethylation of arginine (Histone H4 Arginine 3) in cell line TE11; test: Revised PRMT5 Biomarker Assay; assay type: cell-based; settings: Homo sapiens, TE-11; TE11 cells, 72 hours incubation, anti-Di-Methyl Histone H4 Arginine 3 immunofluorescence, plate-reader based
Experimental: Compounds of the invention may be tested for potency to inhibit symmetrical dimethylation of arginine in the following assay:
The cell line TE11 was seeded at a density of 6,000 cells per well in 96 well optical quality tissue culture plates in DME medium and 10% foetal bovine serum, and allowed to adhere for 5 hours under standard culture conditions (37 degree Celsius, 5% CO2). Compound dilutions prepared in DMSO were added to the medium, with negative control wells reserved for treatment with DMSO only and positive controls receiving a potent PRMT5 inhibitor compound at 1 μM concentration. After incubation for 72 hours, the cells were fixed with 3.7% formaldehyde in PBS for 30 minutes at room temperature, washed with phosphate buffer saline and blocked with Odyssey blocking buffer (LI-COR, Lincoln, Nebr.). Rabbit anti-Di-Methyl Histone H4 Arginine 3 specific antibody (Epigentek) in Odyssey blocking buffer was added and incubated for 14 hours at 4 degree Celsius. After washing, anti-rabbit secondary antibody labelled with Alexa647 dye (LifeTechnologies) and Hoechst 33342 (1 μg/mL, SigmaAldrich) were added for 1 hour incubation. Plates were washed and read on a PerkinElmer Envision 2103 in fluorescence intensity scanning mode (24 scans across the well area). The methylation level information was corrected for the number of cells as expressed by the Hoechst 33342 stain, converted to percent inhibition relative to controls on the same plate and the data fitted against a four-parameter logistic model to determine the 50% inhibitory concentration (IC50 plate-reader based). Alternatively, the plates were imaged on a PerkinElmer Phenix high content imaging platform. Using a Columbus image analysis pipeline, individual nuclei were located by Hoechst 33342 stain and the methylation level was calculated from the Alexa647-related intensity in the same area. The resulting mean intensity per cell was directly converted to percent inhibition as outlined above (IC50, imager based)).

[2] = target: Full-length PRMT5 enzyme co-expressed with MEP50 (Homo sapiens (Human), UniProt O14744); test: PRMT5 Biochemical Assay; settings: 200 nM peptide substrate, 1 μM S-Adenosyl methionine, 4 hours at 37° C., Transcreener EPIGEN fluorescence polarisation
From the text: Compounds of the invention may be tested for in vitro activity in the following assay: A histone H4 derived peptide is used as substrate (amino acid sequence: […]NH2). Full-length PRMT5 enzyme (NCBI Reference sequence NP_006100.2) was co-expressed with Hiss-MEP50 in insect cells and purified via Nickel immobilized metal affinity and gel filtration chromatography (“the enzyme”).
The […] assay reactions are run in Greiner brand black 384-well low volume plates. All reactions contained assay buffer (phosphate buffered saline, 0.01% (v/v) Tween-20, 0.01% (w/v) albumin from chicken egg white, 1 mM dithiothreitol, 200 nM peptide substrate, 1 μM S-Adenosyl methionine, and 15 ng/reaction enzyme, with the enzyme being omitted from negative control reactions. Compounds were added in a volume of 100 nL from dilution series prepared in DMSO, positive and negative control reactions receiving the same volume DMSO without compound. The plates were sealed with adhesive seals and incubated for 4 hours at 37° C. Reaction progress was measured using the Transcreener™ EPIGEN methyltransferase assay (BellBrook Labs, Madison, Wis.) as recommended by the manufacturer. To each reaction 2 μL detection mix were added, containing coupling enzymes, fluorescence polarisation tracer, and AMP antibody. […]

[3] = system: symmetrical dimethylation of arginine (Histone H4R3) in cell line TE11; test: PRMT5 Biomarker Assay (Di-Methyl Histone H4R3 ELISA); assay type: cell-based; settings: Homo sapiens, TE-11; TE11 cells, 72 h incubation, EpiQuik Global Di-Methyl Histone H4R3 ELISA, corrected for total protein
Experimental: Compounds of the invention may be tested for potency to inhibit symmetrical […] of arginine in the following assay:
The cell line TE11 was seeded at a density of 12,000 cells per well in 96 well tissue culture plates in DME medium and 10% foetal bovine serum, and allowed to adhere overnight under standard culture conditions (37° C., 5% CO2). Compound dilutions prepared in DMSO were added to the medium, with negative control wells reserved for treatment with DMSO only and positive controls receiving a potent PRMT5 inhibitor. The concentration of the inhibitor had been previously determined to give maximum inhibition of the methylation. After incubation for 72 h, cells were washed twice in ice-cold PBS, lysed in lysis buffer (20 mM Tris pH 7.4, 135 mM NaCl, 1.5 mM MgCl2, 1 mM EGTA, 10% glycerol and 1% Triton-X100), centrifuged at 15,000×g and the supernatants collected for subsequent analysis. The methylation level was determined using the EpiQuik™ Global Di-Methyl Histone H4R3 Quantification ELISA Kit (Epigentek, Farmingdale, N.Y.) as per the manufacturer's recommendations; in parallel the total protein amount in the lysate was quantified using a Lowry protein assay. […]

Chain of Full-length PRMT5 enzyme co-expressed with MEP50 (O14744 whole entry): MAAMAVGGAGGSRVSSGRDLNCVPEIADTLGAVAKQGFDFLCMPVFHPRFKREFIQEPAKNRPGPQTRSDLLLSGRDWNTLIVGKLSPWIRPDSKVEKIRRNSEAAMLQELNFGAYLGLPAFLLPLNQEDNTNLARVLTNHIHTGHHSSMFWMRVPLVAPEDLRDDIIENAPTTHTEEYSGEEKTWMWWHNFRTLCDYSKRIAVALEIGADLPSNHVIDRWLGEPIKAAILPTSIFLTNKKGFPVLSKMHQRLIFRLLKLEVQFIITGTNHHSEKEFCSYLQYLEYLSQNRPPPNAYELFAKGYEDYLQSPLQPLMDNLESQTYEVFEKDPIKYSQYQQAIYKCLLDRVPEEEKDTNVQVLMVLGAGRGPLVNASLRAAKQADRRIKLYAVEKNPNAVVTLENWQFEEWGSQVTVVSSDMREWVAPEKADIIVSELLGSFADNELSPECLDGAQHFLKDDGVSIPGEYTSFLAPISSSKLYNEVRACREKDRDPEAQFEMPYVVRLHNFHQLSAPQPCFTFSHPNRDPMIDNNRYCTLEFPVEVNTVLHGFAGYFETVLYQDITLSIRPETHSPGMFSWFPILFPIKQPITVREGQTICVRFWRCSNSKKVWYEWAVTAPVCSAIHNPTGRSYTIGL
Chain of Full-length PRMT5 enzyme co-expressed with MEP50 (Q9BQA1 whole entry partner): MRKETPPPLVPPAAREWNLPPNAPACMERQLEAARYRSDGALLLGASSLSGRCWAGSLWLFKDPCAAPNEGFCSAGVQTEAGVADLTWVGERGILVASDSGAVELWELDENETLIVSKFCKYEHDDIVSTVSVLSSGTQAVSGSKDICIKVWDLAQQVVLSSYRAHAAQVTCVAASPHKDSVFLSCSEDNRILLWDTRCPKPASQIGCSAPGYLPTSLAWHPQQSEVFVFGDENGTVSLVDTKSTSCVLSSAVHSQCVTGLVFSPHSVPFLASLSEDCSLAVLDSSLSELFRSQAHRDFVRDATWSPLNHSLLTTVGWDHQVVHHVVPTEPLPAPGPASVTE

O=C(NCCC(O)CN1CCc2ccccc2C1)c1ccc(Cl)cc1 (stereo not drawn) [Compound 1, 4-Chloro-N-(4-(3,4-dihydroisoquinolin-2(1H)-yl)-3-hydroxybutyl)benzamide]
IC50 [1]: 0.318 µM
IC50 [2]: 0.359 µM
IC50 [3]: 0.0404 µM
